Source: the supplement of paper PMC11451515

Tested on: P12-Ichikawa
Assay: cell viability relative to DMSO control; higher = less cytotoxic
Conditions: 48 h
Outline: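 Viability, reported as a per-plate percentage of DMSO wells with cell-free wells as background, came from CellTiter-Glo One luminescence. Reading took place after 48 h at 37°C. Before that, NOMO1 or SEM (500 cells/well) or P12-Ichikawa (1000 cells/well) leukemia cells, adapted for at least four passages in each medium, were seeded in 1536-well plates (5 μl) and pin-dosed with library compounds in DMSO, 47 μM to 0.79 nM over 11 threefold points.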

[1] = HPLM + 10% dialyzed FBS, 0.000781 µM
[2] = HPLM + 10% dialyzed FBS, 0.00234 µM
[3] = HPLM + 10% dialyzed FBS, 0.00702 µM
[4] = HPLM + 10% dialyzed FBS, 0.0632 µM
[5] = HPLM + 10% dialyzed FBS, 0.19 µM
[6] = HPLM + 10% dialyzed FBS, 0.569 µM
[7] = HPLM + 10% dialyzed FBS, 1.71 µM
[8] = HPLM + 10% dialyzed FBS, 5.12 µM
[9] = HPLM + 10% dialyzed FBS, 15.4 µM
[10] = HPLM + 10% dialyzed FBS, 46.1 µM
[11] = RPMI 5 mM glucose + 10% FBS, 0.000781 µM
[12] = RPMI 5 mM glucose + 10% FBS, 0.00234 µM
[13] = RPMI 5 mM glucose + 10% FBS, 0.00702 µM
[14] = RPMI 5 mM glucose + 10% FBS, 0.0211 µM
[15] = RPMI 5 mM glucose + 10% FBS, 0.0632 µM
[16] = RPMI 5 mM glucose + 10% FBS, 0.19 µM
[17] = RPMI 5 mM glucose + 10% FBS, 0.569 µM
[18] = RPMI 5 mM glucose + 10% FBS, 1.71 µM
[19] = RPMI 5 mM glucose + 10% FBS, 5.12 µM
[20] = RPMI 5 mM glucose + 10% FBS, 15.4 µM
[21] = RPMI 5 mM glucose + 10% FBS, 46.1 µM
[22] = RPMI 5 mM glucose + 10% dialyzed FBS, 0.000781 µM
[23] = RPMI 5 mM glucose + 10% dialyzed FBS, 0.00234 µM
[24] = RPMI 5 mM glucose + 10% dialyzed FBS, 0.00702 µM
[25] = RPMI 5 mM glucose + 10% dialyzed FBS, 0.0211 µM
[26] = RPMI 5 mM glucose + 10% dialyzed FBS, 0.0632 µM
[27] = RPMI 5 mM glucose + 10% dialyzed FBS, 0.19 µM
[28] = RPMI 5 mM glucose + 10% dialyzed FBS, 0.569 µM
[29] = RPMI 5 mM glucose + 10% dialyzed FBS, 1.71 µM
[30] = RPMI 5 mM glucose + 10% dialyzed FBS, 5.12 µM
[31] = RPMI 5 mM glucose + 10% dialyzed FBS, 15.4 µM
[32] = RPMI 5 mM glucose + 10% dialyzed FBS, 46.1 µM
[33] = HPLM + 10% dialyzed FBS, 0.0211 µM

SMILES | cell viability [1] [%] | cell viability [2] [%] | cell viability [3] [%] | cell viability [4] [%] | cell viability [5] [%] | cell viability [6] [%] | cell viability [7] [%] | cell viability [8] [%] | cell viability [9] [%] | cell viability [10] [%] | cell viability [11] [%] | cell viability [12] [%] | cell viability [13] [%] | cell viability [14] [%] | cell viability [15] [%] | cell viability [16] [%] | cell viability [17] [%] | cell viability [18] [%] | cell viability [19] [%] | cell viability [20] [%] | cell viability [21] [%] | cell viability [22] [%] | cell viability [23] [%] | cell viability [24] [%] | cell viability [25] [%] | cell viability [26] [%] | cell viability [27] [%] | cell viability [28] [%] | cell viability [29] [%] | cell viability [30] [%] | cell viability [31] [%] | cell viability [32] [%] | cell viability [33] [%]
CC[C@H](CC#N)OC(=O)N[C@@H](C)c1cccc(NC(=O)Nc2ccc(-c3cnco3)c(OC)c2)c1 | 117 | 112 | 120 | 111 | 107 | 106 | 74.9 | 49.8 | 49.1 | 40.6 | 119 | 121 | 118 | 117 | 132 | 113 | 97.2 | 65.9 | 44.3 | 33.4 | 30.4 | 112 | 120 | 111 | 120 | 121 | 110 | 90.4 | 59.1 | 42.3 | 40.2 | 40.6 | –
O=C([O-])C(O)Cc1ccc(O)c(O)c1 (centres undefined) | 109 | 107 | 99.1 | 111 | 106 | 104 | 93.7 | 95.7 | 90.2 | 90.1 | 101 | 96.6 | 107 | 99.6 | 99.4 | 98.3 | 92.6 | 90.2 | 99.9 | 81.8 | 83.3 | 95 | 99.2 | 99.9 | 95.5 | 92.3 | 96.8 | 93.2 | 87.9 | 89 | 74.6 | 83.5 | 110
c1cncc(CN2CCC(n3ncc4c(N5CCOCC5)nc(-c5ccc6[nH]ccc6c5)nc43)CC2)c1 | 96.5 | 99.9 | 98.8 | 105 | 92.2 | 91.8 | 88.5 | 83.9 | 64.8 | 46.1 | 77.9 | 89.7 | 95.4 | 87.9 | 91.6 | 84.9 | 76.1 | 75.7 | 63.5 | 32.6 | 9.35 | 86.5 | 92.9 | 89.5 | 91.7 | 91.5 | 81.7 | 78.6 | 74.6 | 69.9 | 31.7 | 5.49 | 97.5
CCC1(C)CC(=O)NC1=O (centres undefined) | 101 | 103 | 104 | 108 | 116 | 100 | 102 | 94.9 | 96.7 | 94.7 | 99.4 | 105 | 115 | 101 | 111 | 105 | 102 | 99.3 | 106 | 92 | 87.4 | 101 | 101 | 101 | 97.3 | 104 | 104 | 102 | 96.3 | 96.3 | 97.1 | 88.9 | 104
CC1CCC(C(=O)N(c2cc(C#CC(C)(C)C)sc2C(=O)O)C2CCC(O)CC2)CC1 (centres undefined) | 102 | 91.2 | 98.4 | 95.1 | 95.7 | 93.1 | 88.2 | 83.2 | 59.5 | 49 | 91.2 | 96.3 | 92.4 | 92.5 | 95.6 | 87 | 96.7 | 75.9 | 71.9 | 49.2 | 45.5 | 85.8 | 92.4 | 77.3 | 95 | 86.3 | 83.8 | 88.5 | 77.4 | 69.2 | 54.3 | 38.4 | 95.9
C#Cc1cccc(Nc2ncnc3cc(OCCOC)c(OCCOC)cc23)c1 | 98.2 | 101 | 97.2 | 99.5 | 100 | 101 | 91.3 | 88.5 | 84.3 | 62 | 96.6 | 92.8 | 92.1 | 95.5 | 95.6 | 92 | 88.6 | 88.4 | 78.9 | 83.6 | 52.5 | 96.5 | 93.2 | 95.5 | 91.8 | 96.4 | 93.3 | 86.8 | 80.2 | 83.3 | 78.7 | 56.6 | 89.3
C[C@H]1[C@H](NC(=O)/C(=N/OC(C)(C)C(=O)O)c2csc(N)n2)C(=O)N1[S+](=O)([O-])O | 108 | 116 | 109 | 106 | 117 | 111 | 105 | 109 | 95.3 | 103 | 99.3 | 102 | 97.1 | 102 | 101 | 106 | 101 | 110 | 98.4 | 93.4 | 97.3 | 81.3 | 101 | 101 | 102 | 110 | 102 | 101 | 93.8 | 93.3 | 99.4 | 92.3 | 102
CC1=C(/C=C/C(C)=C/C=C/C(C)=C/C=C/C=C(C)/C=C/C=C(C)/C=C/C2=C(C)CCCC2(C)C)C(C)(C)CCC1 | 112 | 112 | 109 | 109 | 106 | 108 | 107 | 112 | 95.1 | 99.3 | 111 | 119 | 110 | 111 | 116 | 105 | 111 | 109 | 108 | 95.8 | 95.4 | 117 | 113 | 118 | 108 | 109 | 106 | 107 | 106 | 106 | 103 | 85.7 | 110
CCC(C)SSc1ncc[nH]1 (centres undefined) | 91.9 | 99.9 | 97.1 | 98.2 | 103 | 94.9 | 111 | 101 | 69.5 | 10.6 | 92.8 | 102 | 91.1 | 90 | 96.1 | 95 | 93.8 | 98.1 | 99.7 | 62.1 | 6.08 | 92 | 91.4 | 93.5 | 90.4 | 90.1 | 95.8 | 89.9 | 97.6 | 92 | 34.8 | 5.7 | 105
[NH2][Pt]1([NH2])[O]CC(=O)[O]1 | 93.6 | 98.4 | 101 | 105 | 102 | 102 | 101 | 105 | 103 | 105 | 98.5 | 88.3 | 96.9 | 99.5 | 104 | 99.2 | 102 | 88.5 | 92.4 | 95.2 | 102 | 86.2 | 93 | 96.4 | 89.4 | 92.1 | 89.9 | 97.8 | 89.6 | 91.1 | 92.4 | 93.8 | 95.7
C[C@@H](NC1=CC=CC=C1C(O)=O)C/2=C/C(=C\N3C(=O)/C=C(\N=C23)N4CCOCC4)C | 87.2 | 87 | 101 | 95.9 | 93.2 | 97.1 | 89.3 | 75 | 60.5 | 39.9 | 82.4 | 78.7 | 83.5 | 97.1 | 92.1 | 84.7 | 85.7 | 72.2 | 59.2 | 47.9 | 27.6 | 77.7 | 85.3 | 93.1 | 92.9 | 90.5 | 88.4 | 80 | 87.4 | 61.9 | 46.3 | 33.1 | 94.1
COC1=CC=CC=C1C2=CC=CC(=C2)C/3=C(O)/C4=CC(=C(Cl)C=C4NC3=O)C#N | 98.4 | 106 | 111 | 107 | 112 | 109 | 92.8 | 10.2 | 6.7 | 10.6 | 99.3 | 110 | 107 | 116 | 123 | 115 | 114 | 106 | 64.3 | 4.25 | 5.71 | 95.2 | 99.1 | 105 | 105 | 99.6 | 101 | 110 | 94 | 45.5 | 5.98 | 6.01 | 114
CCCCCOC(=O)NC\1=N\C(=O)N(\C=C1F)[C@@H]2O[C@H](C)[C@@H](O)[C@H]2O | 107 | 91.7 | 101 | 97.1 | 103 | 93.8 | 96.4 | 94.2 | 89.9 | 86.7 | 96.7 | 99.4 | 97.4 | 93.7 | 101 | 91.5 | 92.6 | 93.3 | 89.6 | 77.3 | 84 | 101 | 96.1 | 96.2 | 94.8 | 100 | 93 | 91.2 | 87.2 | 90.1 | 83.8 | 83.8 | 103
COc1cc2nc(N(C)CCCNC(=O)C3CCCO3)nc(N)c2cc1OC (centres undefined) | 78.4 | 88.7 | 80.9 | 88.8 | 87.6 | 86.2 | 82.3 | 88.3 | 92.6 | 94.1 | 82.3 | 87.4 | 89.9 | 91 | 92.6 | 91.3 | 84.6 | 87.8 | 91.6 | 93.9 | 101 | 70.4 | 81.7 | 76.8 | 78.9 | 82.9 | 83.4 | 79.5 | 82.7 | 76.6 | 87.8 | 80.7 | 92.3
O=C(NCC[S+](=O)([O-])c1ccc(C(F)(F)F)cn1)c1ccc(Cl)cc1 | 115 | 116 | 121 | 118 | 117 | 115 | 117 | 110 | 112 | 108 | 117 | 124 | 118 | 127 | 117 | 115 | 111 | 107 | 119 | 107 | 109 | 112 | 126 | 121 | 121 | 120 | 116 | 115 | 103 | 115 | 102 | 102 | 115
